In paper PMC8772772, “Enantioselective Synthesis and Pharmacological Evaluation of Aza-CGP37157–Lipoic Acid Hybrids for the Treatment of Alzheimer’s Disease” (Antioxidants, 2022):
Read-outs that look alike come from different tables or passages of the source.

Key:
[1] = Cytotoxicity in SH-SY5Y cell line (MTT); format: cell-based; conditions: human; SH-SY5Y, 10, 30 and 100 μM, 24 h, MTT; read-out: CC50
Procedure: SH-SY5Y human neuroblastoma cells were seeded in 96-well clear multi-well plates (6 × 10^4 cells/well). Cells were treated with increasing concentrations of compounds (10, 30 and 100 μM) for 24 h. Thereafter, viability was assessed by the MTT method. Cytotoxic concentration to observe 50% mortality (CC50) values for compounds were interpolated from dose–response curves represented as percentage of cell death vs. concentration of compound, fitted by non-linear regression and data interpolated to value 50.
(§1) The tetrazolium ring of MTT can be cleaved by active dehydrogenases to produce a formazan precipitate. At the end of the experiments, MTT (SigmaAldrich, M2003) stock solution was added to each well to achieve a final concentration of 0.5 mg/mL. Cells were incubated for 2 h. Thereafter, culture media was removed, and DMSO was added to each well to dissolve the formazan precipitate. Finally, absorbance was measured in a microplate reader (SPECTROstar nano, BMG Labtech) at 570 nm. Absorbance obtained in basal conditions was considered as 100% cell viability.
In order to evaluate the potential pharmacological profile of new compounds, we first tested the potential neurotoxicity in the neuroblastoma SHSY5Y cell line. Toxicity was evaluated at increasing concentrations (10, 30 and 100 μM), and toxicity was measured as MTT reduction capability. CC50 values were calculated by non-linear regression of curves % survival vs. concentration (Supplementary Materials Figure S2). CGP37157 and previously studied racemic derivatives rac-3a and (rac,R)-3b were included as reference compounds. As previously described, LA is a non-neurotoxic compound at the concentrations texted.

[2] = tested on: SH-SY5Y neuroblastoma cells; experiment: Neuroprotection against rotenone/oligomycin A oxidative stress in SH-SY5Y cells (MTT); format: cell-based, human; conditions: compound 1 μM 24 h, then compound + R/O (30/10 μM) 24 h; for % Survival: basal = 100, R/O alone 53.4
Procedure: Human neuroblastoma SH-SY5Y cells were plated in 96-well clear multi-well plates (6 × 10^4 cells/well). The potential neuroprotective activity of compounds against OS was evaluated using the rotenone (30 μM) (SigmaAldrich, R8875) and oligomycin A (10 μM) (SigmaAldrich, 75351) (R/O) toxic mixture. Neuroprotection activity against Tau hyperphosphorylation was evaluated by using the okadaic acid (20 nM) model. Cells were pre-incubated with each compound (1 µM) for 24 h, and then treatments were removed and cells were incubated with compounds (1 µM) in the presence the corresponding toxic for additional 24 h. At the end of the experiments, viability was determined by the MTT method. Data were normalized from cell death induced by the toxic stimuli (considered as 100% cell death). Then, the protection percentages were calculated by subtracting from the death induced by toxic stimuli, the death in the presence of the compound.
as §1
Thus, we selected a pre-incubation protocol to evaluate their potential neuroprotective capacity based on the NRF2-induction activity and direct antioxidant effect. Compound pre-incubation would induce the expression of antioxidant enzymes regulated by the phase II antioxidant response, thus promoting cells’ survival. The co-incubation period would also evaluate their capacity to trap free radicals produced by intoxicated mitochondria. SH-SY5Y neuroblastoma cells were treated with compounds (1 µM) during 24 h, and then cells were co-incubated with the corresponding compound at the same concentration and the R/O combination (30/10 µM) for additional 24 h. Melatonin, a well-known antioxidant natural neurohormone, was included as a positive control (1 µM). Previously reported racemic derivatives (rac-3a and (rac,R)-3b) and their precursors ((±)-6, R-6 and S-6) were included for comparative purposes at the same concentration.

[3] = design: method as in PMID 31693218; conditions: cited from earlier work; for DPPH Scavenging at 100 µM, %: compound 100 µM; for DPPH Scavenging at 1mM, %: compound 1 mM
NRF2 [4] = conditions: AREc32 cells, cited from earlier work; for CD (concentration required to double the specific luciferase activity): 24 h, Table S1, ref [3] of the supplement; for CD (concentration to double luciferase expression): previous results
primary glial cultures = tested on: primary glial cultures; design: method as in PMID 31693218; conditions: primary glial cultures stimulated by LPS; cited from earlier work
NRF2 [5] = experiment: NRF2 induction, luciferase expression in AREc32 cell line; format: cell-based; conditions: AREc32 cells, 0.3, 3, 10 and 30 μM (LA: 0.1–0.6 mM), 24 h; mean ± SEM
Procedure: AREc32 cell line was kindly shared by Professor Roland Wolf (University of Dundee, UK). AREc32 cells were maintained in DMEM/glutamax/high glucose (Gibco, 61965-06, Madrid, Spain), supplemented with 1% penicillin–streptomycin (10,000 units) (SigmaAldrich, P4333, Madrid, Spain), geneticin (0.8 mg/mL) (Gibco, 11811-031) and 10% FBS (Gibco, 10270106), at 37 °C in a 5% CO2 air atmosphere. Cells were used from passage 4 to 18, and mycoplasma contamination was tested every 4 weeks. AREc32 cells were seeded in 96-well white plates (2 × 10^4 cells/well) for 24 h. Thereafter, cells were treated with each compound (0.3, 3, 10 and 30 µM) in duplicate for 24 h. Non-treated cells were included as basal luciferase expression and tert-butylhydroquinone (TBHQ, 10 μM) as positive control in each plate. Luciferase expression was evaluated by using the Luciferase Assay System (Promega, E1483, Madrid, Spain) by luminescence in an Orion II microplate luminometer (Berthold, Germany). Luciferase activity increase was normalized to basal conditions considered as 1. CD values (concentration required to double the luciferase activity) were calculated from dose–response curves of luciferase fold induction vs. compound concentration, fitted by non-linear regression and data interpolated to value 2.
To evaluate the influence of both stereogenic centers in the NRF2 induction capacity of aza-CGP37157-LA hybrids, we used the AREc32 cell line model by analyzing luciferase expression upon treatment with NRF2 inducers. AREc32 cells were exposed to increasing concentrations of tested compounds 7a–d (0.3, […], 10 and 30 μM) during 24 h; thereafter, luciferase expression was evaluated by luminescent assay to calculate the corresponding CD value (concentration to double luciferase expression). […] TBHQ was included as a positive control, and CGP37157, S- and R-LA, rac-3a and (rac,R)-3b and precursors derivatives (R-6 and S-6) were included for comparative purposes. […] Once R-LA is reduced, it might activate the phase II antioxidant response by acting as pro-oxidant over key Cys residues at KEAP1 to generate the corresponding lipoyl-cystinyl disulphide.

[6] = tested on: mitochondrial lipoamide dehydrogenase; design: method as in PMID 8573188; conditions: cited from earlier work
BV2 microglial cells = experiment: Nitrite production reduction in LPS-stimulated BV2 microglial cells (Griess); format: cell-based, mouse; conditions: 24 h pretreatment 0.3, 3, 10, 30 μM, then compound + LPS 100 ng/mL 18 h, Griess
Procedure: BV2 microglial cells were seeded at 2 × 10^4 cells/well and treated with compounds at increasing concentrations during 24 h in complete culture media. Then, treatments were removed, and BV2 cells were co-incubated with compounds and LPS (100 ng/mL) (O127:B8, SigmaAldrich, L3129) for additional 18 h in culture media supplemented with 1% FBS. Each plate included non-treated cells as basal nitrite production. Thereafter, nitrite production was determined by using the modified Griess assay. In brief, samples (150 μL) were mixed with DAPSONE (75 μL) (SigmaAldrich, A74807) and NEDA (75 μL) (SigmaAldrich, 33461), and the mixture was incubated at room temperature for 5 min. Light absorption was measured at 550 nm in a microplate reader (SPECTROstar nano, BMG Labtech). Basal nitrite production was referred to as 100% of nitrite production, and all data were normalized to the basal condition. Concentration needed to reduce nitrite production to 50% was calculated from graphical representation of percentage of nitrite production vs. compound concentration, and data were fitted by non-linear regression and interpolated to 50%.
Chronic neuroinflammation is considered a key pathological event in the early stages of AD development. Among immune cells present at CNS, microglia is related to host defense and tissue repair. Nonetheless, chronic neuroinflammation induced by an adverse environment of protein aggregates and exacerbated OS induces a neurotoxic activity of microglia that, finally, leads to neuronal death. […] To this end, we selected the BV2 microglial cell model stimulated by lipopolysaccharide (LPS), a TLR4 agonist that activates the pro-inflammatory response. CGP37157, R- and S-LA; analogue compounds rac-3a and (rac,R)-3b; and precursor derivatives 6 were included with comparative and reference purposes. Microglial BV2 cells were treated with increasing concentrations of the corresponding compound (0.3, 3, 10 and 30 µM) for 24 h following a pre-incubation protocol. Thereafter, treatments were exchanged by a combination of the corresponding compound at desired concentration and LPS (100 ng/mL) during 18 h. At the end of this period, nitrite production was evaluated by the Griess method as an indirect measurement of iNOS enzyme expression and BV2 activation.

SH-SY5Y cell line = tested on: SH-SY5Y cell line; design: method as in PMID 21989390; conditions: at the concentrations tested; cited from earlier work

Row | SMILES | CC50 at 24 h [1] | % Protection [2] | % Survival [2] | DPPH Scavenging at 100 µM, % [3] | DPPH Scavenging at 1mM, % [3] | CD (concentration required to double the specific luciferase activity) (NRF2 [4]) | CD (concentration to double luciferase expression) (NRF2 [4]) | reduction of nitrite production (primary glial cultures) | CD (concentration required to double the specific luciferase activity) (NRF2 [5]) | rate of conversion to dihydrolipoic acid relative to S-LA [6] | IC50 (BV2 microglial cells) | neurotoxicity (SH-SY5Y cell line)
1 | O=C1CN(CCOC(=O)CCCC[C@@H]2CCSS2)C(c2ccccc2Cl)c2cc(Cl)ccc2N1 (mixture of isomers) [(rac,R)-3b] | 76.2 ± 4.8 µM | 59.3% | 72.9 ± 3.5% | 8.7 ± 5.1 [19] % | 30.7 ± 3.9 [19] % | 9.8 ± 1.6 µM | 9.8 ± 1.6 µM | not active | – | – | – | –
2 | O=C1CN(CCOC(=O)CCCCC2CCSS2)C(c2ccccc2Cl)c2cc(Cl)ccc2N1 (racemic) [rac-3a] | 97.1 ± 2.3 µM | 52.1% | 69.0 ± 5.6% | 15.1 ± 3.4 [19] % | 37.4 ± 3.8 [19] % | 14.8 ± 1.6 µM | 14.8 ± 1.6 µM | able to reduce nitrite production | – | – | – | –
3 | O=C(O)CCCC[C@@H]1CCSS1 [(R) -Lipoic acid, (R)-Lipoic acid, reference compound] | – | – | – | – | – | – | – | – | > 600 µM | 28 times | > 30 µM | –
4 | O=C(O)CCCCC1CCSS1 (centres unmarked) [LA, lipoic acid] | – | – | – | – | – | – | – | – | – | – | – | non-neurotoxic
